Series [1] deals with rat CRF2R α receptor. Nature of the series: cAMP agonism at rat CRF2R α receptor in A7R5 rat aortic smooth muscle cells (Example 8). Format: cell-based. As to conditions: cAMP HTRF, A7R5 rat aortic smooth muscle cell line, 0% HSA. The method in brief:
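Thawed cryopreserved A7R5 cells in HBSS/20 mM HEPES (0 or 0.1% HSA) with 2 mM IBMX, 2000 cells/well, were exposed to compound for 30 min at room temperature. cAMP was read by HTRF (665/620 nm ratio) after 1 h with lysis reagents. Activity was normalised to 1000 nM urocortin 2 as 100%, and EC50 was taken as the concentration giving 50% of maximal activation.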
In general terms: Time-resolved FRET reads energy transfer from a long-lived donor to a nearby acceptor.

Series [2] can be described thus: Physical stability, Thioflavin T fibrillation assay (Example 14). Format: physicochemical. The settings on record: Buffer B: 100 mM acetate buffer, pH 4.5, 2.7 mg/ml m-cresol; 3 mg/ml; 37° C. shaking. The method, boiled down: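 Compounds at 3 mg/ml final in buffer were stressed at 37° C by repeated cycles of 10 s shaking at 960 rpm and 50 s rest. ThT fluorescence was read every 20 minutes in eight replicates, with fluorescence increase and lag time indicating fibrillation tendency.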

The target in series [3] is T1, CRF1R receptor (Homo sapiens, UniProt P34998).
T1 construct: host or cells: CHO-K1 clone 2
T1 sequence (P34998 24-415): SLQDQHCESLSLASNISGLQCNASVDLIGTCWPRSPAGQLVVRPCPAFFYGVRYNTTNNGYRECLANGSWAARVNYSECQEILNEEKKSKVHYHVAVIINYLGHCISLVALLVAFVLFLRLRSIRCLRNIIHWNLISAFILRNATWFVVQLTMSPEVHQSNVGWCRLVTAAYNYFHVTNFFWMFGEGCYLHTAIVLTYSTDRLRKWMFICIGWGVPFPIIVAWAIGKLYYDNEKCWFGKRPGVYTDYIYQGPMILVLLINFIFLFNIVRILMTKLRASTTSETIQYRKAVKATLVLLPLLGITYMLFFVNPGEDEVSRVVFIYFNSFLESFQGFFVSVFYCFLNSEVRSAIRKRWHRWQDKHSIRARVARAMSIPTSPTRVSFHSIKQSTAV
Nature of the series: cAMP activity at anti-target CRF1R, CRF1R-overexpression CHO cell line (Example 9). Format: cell-based. The settings on record: CRF1R-overexpression CHO cell line; for EC50: 0% HSA; for Emax: read-out: Emax (%). The method in brief:
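cAMP accumulation was read by HTRF after 30 min at room temperature of compound treatment. Cells were cryopreserved CHO cells overexpressing CRF1R, plated at 2000/well in IBMX (2 mM)-containing HBSS/HEPES buffer with 0 or 0.1% HSA. Activity was normalized to 1000 nM UCN2 as 100%.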

Series [4] in a line: Solubility in buffer systems by UPLC-UV (Example 13). Format: physicochemical. The method, boiled down: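 The supernatant was diluted 1:10 and quantified by UPLC-UV peak area against a reference standard curve, correcting for sequence-based extinction coefficients.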
Where [5] appears, read: pH 4.5, Solubility in Buffer A [mg/ml].
Setting [6] is: pH 4.5, Solubility in Buffer B [mg/ml].
The mark [7] stands for this setting: pH 7.4, Solubility in Buffer C [mg/ml].

Converted amounts (≈) assume the structure as drawn. Starred links: 1 amine or outer side, 2 acyl side, 3 side chain; linkers in the order of their positions; H or OH if unused. Non-standard residues stand in square brackets, D forms with d. Residues, ends and D or L forms follow the SMILES beside them. Groups on a side chain read outwards from the residue. *: point of attachment. C18 diacid = O=C(O)CCCCCCCCCCCCCCCCC(=O)*; γGlu = O=C(O)[C@H](CCC(=O)[*:2])N[*:1]; AEEA = NCCOCCOCC(=O)O; Aib = CC(C)(N)C(=O)O

Broadly, the EC50 is the concentration giving half of the maximal effect. Low values mean higher potency in that assay, high ones lower potency in that assay. As a reminder, the Emax is the greatest response seen or fitted, relative to the assay's reference. Usually solubility stands for the dissolved amount per volume that the medium holds. Compound `CC[C@H](C)[C@H](N)C(=O)N[C@H](C(=O)N[C@@H](CC(C)C)C(=O)N[C@@H](CO)C(=O)N[C@@H](CC(C)C)C(=O)N[C@@H](CC(=O)O)C(=O)N[C@H](C(=O)N1CCC[C@H]1C(=O)N[C@H](C(=O)N[C@@H](CCCCN)C(=O)N[C@@H](CC(C)C)C(=O)N[C@@H](CCCCNC(=O)COCCOCCNC(=O)COCCOCCNC(=O)CC[C@H](NC(=O)CCCCCCCCCCCCCCCCC(=O)O)C(=O)O)C(=O)N[C@@H](CCCCN)C(=O)N[C@H](C(=O)N[C@@H](CC(C)C)C(=O)N[C@@H](CC(C)C)C(=O)N[C@@H](CCCCN)C(=O)N[C@@H](CCC(N)=O)C(=O)N[C@@H](CCC(=O)O)C(=O)N[C@@H](CCCNC(=N)N)C(=O)N[C@@H](CCC(N)=O)C(=O)N[C@@H](CCCCN)C(=O)N[C@@H](CCCCN)C(=O)NC(C)(C)C(=O)N[C@@H](CCCNC(=N)N)C(=O)N[C@@H](CCC(=O)O)C(=O)N[C@@H](CCC(N)=O)C(=O)N[C@@H](C)C(=O)N[C@@H](CCC(=O)O)C(=O)N[C@@H](CCCCN)C(=O)N[C@@H](CC(N)=O)C(=O)N[C@@H](CCCCN)C(=O)N[C@@H](CCC(N)=O)C(=O)N[C@H](C(=O)N[C@@H](CC(C)C)C(=O)N[C@@H](C)C(=O)N[C@@H](CCC(N)=O)C(=O)N[C@H](C(N)=O)C(C)C)[C@@H](C)CC)[C@@H](C)CC)[C@@H](C)CC)C(C)C)C(C)C` [compound 99] (H-IVLSLDVPIKLK([AEEA-AEEA-γGlu-C18 diacid])KILLKQERQKK[Aib]REQAEKNKQILAQV-NH2) registered an EC50 in series [1] of 0.62 nM. Moreover, in series [2], the “Increase in FI (fluorescence intensity)” value is on record as “No” and the “Lag time” value was above 45 h. Moreover, in series [3], the EC50 is above 1000 nM and the Emax was 3.25%. Further, the solubility at 1 h in series [4] (setting [5]) is above 10000 µg/mL.
Regarding `CC[C@H](C)[C@H](N)C(=O)N[C@H](C(=O)N[C@@H](CC(C)C)C(=O)N[C@@H](CO)C(=O)N[C@@H](CC(C)C)C(=O)N[C@@H](CC(=O)O)C(=O)N[C@@H](C(=O)N1CCC[C@H]1C(=O)N[C@H](C(=O)N[C@@H](CCCCN)C(=O)N[C@@H](CC(C)C)C(=O)N[C@@H](CCCCNC(=O)COCCOCCNC(=O)COCCOCCNC(=O)CC[C@H](NC(=O)CCCCCCCCCCCCCCCCC(=O)O)C(=O)O)C(=O)N[C@@H](CCC(N)=O)C(=O)N[C@H](C(=O)N[C@@H](CC(C)C)C(=O)N[C@@H](CC(C)C)C(=O)N[C@@H](CCCCN)C(=O)N[C@@H](CCC(N)=O)C(=O)N[C@@H](CCC(=O)O)C(=O)N[C@@H](CCCNC(=N)N)C(=O)N[C@@H](CCC(N)=O)C(=O)N[C@@H](CCCCN)C(=O)N[C@@H](CCCCN)C(=O)NC(C)(C)C(=O)N[C@@H](CCCNC(=N)N)C(=O)N[C@@H](CCC(N)=O)C(=O)N[C@@H](CCCCN)C(=O)N[C@@H](C)C(=O)N[C@@H](CCC(=O)O)C(=O)N[C@@H](CCCCN)C(=O)N[C@@H](CC(N)=O)C(=O)N[C@@H](CCCCN)C(=O)N[C@@H](CCC(N)=O)C(=O)N[C@H](C(=O)N[C@@H](CC(C)C)C(=O)N[C@@H](C)C(=O)N[C@@H](CCC(N)=O)C(=O)N[C@H](C(N)=O)C(C)C)[C@@H](C)CC)[C@@H](C)CC)[C@@H](C)CC)C(C)C)C(C)C` [compound 136] (H-IVLSLD[dV]PIKLK([AEEA-AEEA-γGlu-C18 diacid])QILLKQERQKK[Aib]RQKAEKNKQILAQV-NH2; N-terminus assumed), the EC50 was 0.38 nM in series [1] and above 1000 nM in series [3]. In addition, the Emax in series [3] was found to be 21.8%. For the same compound, the solubility at 1 h in series [4] (setting [5]) was above 8400 µg/mL; in series [4] (setting [6]) it was above 8600 µg/mL; in series [4] (setting [7]), 7800 µg/mL (≈ 1510 µM).
As for `CC[C@H](C)[C@H](N)C(=O)N[C@H](C(=O)N[C@@H](CC(C)C)C(=O)N[C@@H](CO)C(=O)N[C@@H](CC(C)C)C(=O)N[C@@H](CC(=O)O)C(=O)N[C@@H](C(=O)N1CCC[C@H]1C(=O)N[C@H](C(=O)N[C@@H](CCCCN)C(=O)N[C@@H](CC(C)C)C(=O)N[C@@H](CCCCNC(=O)COCCOCCNC(=O)COCCOCCNC(=O)CC[C@H](NC(=O)CCCCCCCCCCCCCCCCC(=O)O)C(=O)O)C(=O)N[C@@H](CCC(N)=O)C(=O)N[C@H](C(=O)N[C@@H](CC(C)C)C(=O)N[C@@H](CC(C)C)C(=O)N[C@@H](CCCCN)C(=O)N[C@@H](CCC(N)=O)C(=O)N[C@@H](CCC(=O)O)C(=O)N[C@@H](CCCNC(=N)N)C(=O)N[C@@H](CCC(N)=O)C(=O)N[C@@H](CCCCN)C(=O)N[C@@H](CCCCN)C(=O)N[C@@H](CCC(N)=O)C(=O)N[C@@H](CCCNC(=N)N)C(=O)N[C@@H](CCC(=O)O)C(=O)N[C@@H](CCC(N)=O)C(=O)N[C@@H](C)C(=O)N[C@@H](CCC(=O)O)C(=O)N[C@@H](CCCCN)C(=O)N[C@@H](CC(N)=O)C(=O)N[C@@H](CCCCN)C(=O)N[C@@H](CCC(N)=O)C(=O)N[C@H](C(=O)N[C@@H](CC(C)C)C(=O)N[C@@H](CCC(=O)O)C(=O)N[C@@H](CCC(N)=O)C(=O)N[C@H](C(N)=O)C(C)C)[C@@H](C)CC)[C@@H](C)CC)[C@@H](C)CC)C(C)C)C(C)C` [compound 137] (H-IVLSLD[dV]PIKLK([AEEA-AEEA-γGlu-C18 diacid])QILLKQERQKKQREQAEKNKQILEQV-NH2; N-terminus assumed), the values for the EC50 in series [1] and in series [3] were 0.14 nM and above 1000 nM, respectively. The Emax in series [3] came to 22.5%. Further, the solubility at 1 h in series [4] (setting [5]) was above 8600 µg/mL; in series [4] (setting [6]), above 8400 µg/mL; in series [4] (setting [7]), above 8700 µg/mL.
For the compound `CC[C@H](C)[C@H](N)C(=O)N[C@H](C(=O)N[C@@H](CC(C)C)C(=O)N[C@@H](CO)C(=O)N[C@@H](CC(C)C)C(=O)N[C@@H](CC(=O)O)C(=O)N[C@@H](C(=O)N1CCC[C@H]1C(=O)N[C@H](C(=O)N[C@@H](CCCCN)C(=O)N[C@@H](CC(C)C)C(=O)N[C@@H](CCCCNC(=O)COCCOCCNC(=O)COCCOCCNC(=O)CC[C@H](NC(=O)CCCCCCCCCCCCCCCCC(=O)O)C(=O)O)C(=O)N[C@@H](CCC(N)=O)C(=O)N[C@H](C(=O)N[C@@H](CC(C)C)C(=O)N[C@@H](CC(C)C)C(=O)N[C@@H](CCCCN)C(=O)N[C@@H](CCC(N)=O)C(=O)N[C@@H](CCC(=O)O)C(=O)N[C@@H](CCCNC(=N)N)C(=O)N[C@@H](CCC(N)=O)C(=O)N[C@@H](CCCCN)C(=O)N[C@@H](CCCCN)C(=O)N[C@@H](CCC(N)=O)C(=O)N[C@@H](CCCNC(=N)N)C(=O)N[C@@H](CCC(N)=O)C(=O)N[C@@H](CCC(N)=O)C(=O)N[C@@H](C)C(=O)N[C@@H](CCC(=O)O)C(=O)N[C@@H](CCCCN)C(=O)N[C@@H](CC(N)=O)C(=O)N[C@@H](CCCCN)C(=O)N[C@@H](CCC(N)=O)C(=O)N[C@H](C(=O)N[C@@H](CC(C)C)C(=O)N[C@@H](C)C(=O)N[C@@H](CCC(N)=O)C(=O)N[C@H](C(N)=O)C(C)C)[C@@H](C)CC)[C@@H](C)CC)[C@@H](C)CC)C(C)C)C(C)C` [compound 139] (H-IVLSLD[dV]PIKLK([AEEA-AEEA-γGlu-C18 diacid])QILLKQERQKKQRQQAEKNKQILAQV-NH2; N-terminus assumed), the EC50 in series [1] was 0.1 nM; in series [3] it was above 1000 nM. The Emax in series [3] was 37.6%. For the same compound, the solubility at 1 h in series [4] (setting [5]) is above 9100 µg/mL; in series [4] (setting [6]), above 8600 µg/mL; in series [4] (setting [7]), above 8800 µg/mL.

For the origin of these results see patent US12679878B2, “CRF2 receptor agonists and their use in therapy” (SANOFI, priority 2020, dated 2026).
